Key:
[1] = target: Mitogen-activated protein kinase kinase kinase 6 (Homo sapiens) (UniProt O95382); details: Compound concentration 1000.0 nM
[2] = target: Serine/threonine-protein kinase MAK (Homo sapiens) (UniProt P20794); details: Compound concentration 1000.0 nM
[3] = target: Receptor tyrosine-protein kinase erbB-2 (Homo sapiens) (UniProt P04626); details: Compound concentration 1000.0 nM
[4] = target: Ephrin type-A receptor 3 (Homo sapiens) (UniProt P29320); details: Compound concentration 1000.0 nM
[5] = target: Mitogen-activated protein kinase kinase kinase kinase 2 (Homo sapiens) (UniProt Q12851); details: Compound concentration 1000.0 nM
[6] = target: Rhodopsin kinase GRK1 (Homo sapiens) (UniProt Q15835); details: Compound concentration 1000.0 nM
Sequence of Rhodopsin kinase GRK1 (Homo sapiens) (Q15835 whole entry): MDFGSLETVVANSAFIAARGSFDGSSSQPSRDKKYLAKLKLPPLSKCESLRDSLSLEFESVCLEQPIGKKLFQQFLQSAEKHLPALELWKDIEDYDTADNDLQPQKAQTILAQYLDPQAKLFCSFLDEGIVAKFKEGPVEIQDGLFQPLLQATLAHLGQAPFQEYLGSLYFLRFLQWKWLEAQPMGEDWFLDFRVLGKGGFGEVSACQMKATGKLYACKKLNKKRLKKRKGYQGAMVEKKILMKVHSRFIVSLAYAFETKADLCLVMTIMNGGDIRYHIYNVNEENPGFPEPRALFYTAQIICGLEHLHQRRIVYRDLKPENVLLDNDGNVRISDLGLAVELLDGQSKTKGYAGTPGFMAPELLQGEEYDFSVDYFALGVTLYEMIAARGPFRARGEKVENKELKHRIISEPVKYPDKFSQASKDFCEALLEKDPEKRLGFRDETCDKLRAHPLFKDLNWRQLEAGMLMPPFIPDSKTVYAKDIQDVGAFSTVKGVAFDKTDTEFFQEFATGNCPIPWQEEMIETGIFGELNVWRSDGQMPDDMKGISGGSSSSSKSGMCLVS

[7] = target: Serine/threonine-protein kinase 10 (Homo sapiens) (UniProt O94804); details: Compound concentration 1000.0 nM
[8] = target: Serine/threonine-protein kinase N2 (Homo sapiens) (UniProt Q16513); details: Compound concentration 1000.0 nM
Sequence of Serine/threonine-protein kinase N2 (Homo sapiens) (Q16513 whole entry, looked up): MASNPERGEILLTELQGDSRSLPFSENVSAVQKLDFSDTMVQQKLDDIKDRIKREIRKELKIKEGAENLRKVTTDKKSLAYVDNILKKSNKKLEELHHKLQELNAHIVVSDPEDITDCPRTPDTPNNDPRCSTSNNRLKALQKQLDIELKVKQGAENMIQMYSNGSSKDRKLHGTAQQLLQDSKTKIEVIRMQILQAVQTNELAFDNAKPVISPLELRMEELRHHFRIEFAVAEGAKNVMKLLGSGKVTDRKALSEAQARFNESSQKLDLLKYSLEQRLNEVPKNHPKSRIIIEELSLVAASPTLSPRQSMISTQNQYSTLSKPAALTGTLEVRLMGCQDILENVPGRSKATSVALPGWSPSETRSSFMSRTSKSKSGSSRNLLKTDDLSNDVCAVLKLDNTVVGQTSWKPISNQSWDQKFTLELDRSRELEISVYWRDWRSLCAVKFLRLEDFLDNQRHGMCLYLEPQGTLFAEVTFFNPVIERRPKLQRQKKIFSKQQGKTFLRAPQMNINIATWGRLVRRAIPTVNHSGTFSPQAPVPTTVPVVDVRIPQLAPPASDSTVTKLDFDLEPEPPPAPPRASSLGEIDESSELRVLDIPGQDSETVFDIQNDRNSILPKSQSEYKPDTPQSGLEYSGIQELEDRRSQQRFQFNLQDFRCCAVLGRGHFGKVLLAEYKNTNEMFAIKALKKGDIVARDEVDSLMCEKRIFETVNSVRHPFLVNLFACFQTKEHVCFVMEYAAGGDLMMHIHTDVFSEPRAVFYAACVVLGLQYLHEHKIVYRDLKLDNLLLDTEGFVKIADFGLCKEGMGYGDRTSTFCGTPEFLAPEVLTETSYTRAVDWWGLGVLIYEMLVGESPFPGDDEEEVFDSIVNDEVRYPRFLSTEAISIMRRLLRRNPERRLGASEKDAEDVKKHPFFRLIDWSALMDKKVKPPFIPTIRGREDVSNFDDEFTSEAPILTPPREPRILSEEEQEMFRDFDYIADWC

[9] = target: Membrane-associated tyrosine- and threonine-specific cdc2-inhibitory kinase (Homo sapiens) (UniProt Q99640); details: Compound concentration 1000.0 nM
[10] = target: Macrophage colony-stimulating factor 1 receptor (Homo sapiens) (UniProt P07333); details: Compound concentration 1000.0 nM
[11] = target: Serine/threonine-protein kinase DCLK1 (Homo sapiens) (UniProt O15075); details: Compound concentration 1000.0 nM
[12] = target: Dual specificity tyrosine-phosphorylation-regulated kinase 2 (Homo sapiens) (UniProt Q92630); details: Compound concentration 1000.0 nM
[13] = target: Ribosomal protein S6 kinase alpha-2 (Homo sapiens) (UniProt Q15349); details: Compound concentration 1000.0 nM
[14] = target: Dual specificity mitogen-activated protein kinase kinase 3 (Homo sapiens) (UniProt P46734); details: Compound concentration 1000.0 nM
[15] = target: Tyrosine-protein kinase ITK/TSK (Homo sapiens) (UniProt Q08881); details: Compound concentration 1000.0 nM
[16] = target: Cyclin-dependent kinase-like 5 (Homo sapiens) (UniProt O76039); details: Compound concentration 1000.0 nM
[17] = target: Atypical kinase COQ8A, mitochondrial (Homo sapiens) (UniProt Q8NI60); details: Compound concentration 1000.0 nM
[18] = tested on: Mast/stem cell growth factor receptor Kit (Homo sapiens), P10721 [D816H]; details: Compound concentration 1000.0 nM
[19] = target: Platelet-derived growth factor receptor beta (Homo sapiens) (UniProt P09619); details: Compound concentration 1000.0 nM
[20] = target: Rhodopsin kinase GRK7 (Homo sapiens) (UniProt Q8WTQ7); details: Compound concentration 1000.0 nM
[21] = target: Vascular endothelial growth factor receptor 3 (Homo sapiens) (UniProt P35916); details: Compound concentration 1000.0 nM
[22] = target: Serine/threonine-protein kinase 24 (Homo sapiens) (UniProt Q9Y6E0); details: Compound concentration 1000.0 nM
[23] = target: Peripheral plasma membrane protein CASK (Homo sapiens) (UniProt O14936); details: Compound concentration 1000.0 nM
[24] = target: Tyrosine-protein kinase BTK (Homo sapiens) (UniProt Q06187); details: Compound concentration 1000.0 nM
[25] = target: Cytoplasmic tyrosine-protein kinase BMX (Homo sapiens) (UniProt P51813); details: Compound concentration 1000.0 nM
Sequence of Cytoplasmic tyrosine-protein kinase BMX (Homo sapiens) (P51813 whole entry): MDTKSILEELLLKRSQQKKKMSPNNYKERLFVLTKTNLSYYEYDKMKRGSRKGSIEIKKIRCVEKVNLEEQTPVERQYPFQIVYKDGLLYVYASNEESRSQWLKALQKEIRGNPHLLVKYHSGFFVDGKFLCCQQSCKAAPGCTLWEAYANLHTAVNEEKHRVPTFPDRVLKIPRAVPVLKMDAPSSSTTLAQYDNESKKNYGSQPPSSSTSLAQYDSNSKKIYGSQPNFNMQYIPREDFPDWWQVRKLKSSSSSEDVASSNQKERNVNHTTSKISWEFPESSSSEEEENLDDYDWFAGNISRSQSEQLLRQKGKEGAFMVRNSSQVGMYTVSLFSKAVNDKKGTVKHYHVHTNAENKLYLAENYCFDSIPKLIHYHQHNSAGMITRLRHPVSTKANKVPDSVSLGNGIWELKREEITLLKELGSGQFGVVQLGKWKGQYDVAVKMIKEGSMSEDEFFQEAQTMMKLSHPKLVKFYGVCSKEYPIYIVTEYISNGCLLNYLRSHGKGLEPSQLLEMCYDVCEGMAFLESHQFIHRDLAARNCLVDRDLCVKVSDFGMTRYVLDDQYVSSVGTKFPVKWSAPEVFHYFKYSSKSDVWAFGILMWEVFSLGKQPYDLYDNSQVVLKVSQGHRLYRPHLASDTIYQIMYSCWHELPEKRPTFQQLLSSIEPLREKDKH

[26] = target: Wee1-like protein kinase (Homo sapiens) (UniProt P30291); details: Compound concentration 1000.0 nM
[27] = tested on: Tyrosine-protein kinase ABL1 (Homo sapiens), P00519 [Q252H]; details: Compound concentration 1000.0 nM
[28] = target: Aurora kinase B (Homo sapiens) (UniProt Q96GD4); details: Compound concentration 1000.0 nM
[29] = target: Ephrin type-B receptor 6 (Homo sapiens) (UniProt O15197); details: Compound concentration 1000.0 nM
[30] = target: Non-receptor tyrosine-protein kinase TYK2 (Homo sapiens) (UniProt P29597); details: Compound concentration 1000.0 nM
[31] = target: Serine/threonine-protein kinase haspin (Homo sapiens) (UniProt Q8TF76); details: Compound concentration 1000.0 nM
[32] = organism: Rattus norvegicus; details: Compound concentration 10.0 uM
[33] = target: Protein-tyrosine kinase 2-beta (Homo sapiens) (UniProt Q14289); details: Compound concentration 1000.0 nM
[34] = target: MAP/microtubule affinity-regulating kinase 4 (Homo sapiens) (UniProt Q96L34); details: Compound concentration 1000.0 nM
[35] = target: Serine/threonine-protein kinase PknB (Mycobacterium tuberculosis) (UniProt P9WI81); details: Compound concentration 1000.0 nM
Sequence of Serine/threonine-protein kinase PknB (Mycobacterium tuberculosis) (P9WI81 whole entry): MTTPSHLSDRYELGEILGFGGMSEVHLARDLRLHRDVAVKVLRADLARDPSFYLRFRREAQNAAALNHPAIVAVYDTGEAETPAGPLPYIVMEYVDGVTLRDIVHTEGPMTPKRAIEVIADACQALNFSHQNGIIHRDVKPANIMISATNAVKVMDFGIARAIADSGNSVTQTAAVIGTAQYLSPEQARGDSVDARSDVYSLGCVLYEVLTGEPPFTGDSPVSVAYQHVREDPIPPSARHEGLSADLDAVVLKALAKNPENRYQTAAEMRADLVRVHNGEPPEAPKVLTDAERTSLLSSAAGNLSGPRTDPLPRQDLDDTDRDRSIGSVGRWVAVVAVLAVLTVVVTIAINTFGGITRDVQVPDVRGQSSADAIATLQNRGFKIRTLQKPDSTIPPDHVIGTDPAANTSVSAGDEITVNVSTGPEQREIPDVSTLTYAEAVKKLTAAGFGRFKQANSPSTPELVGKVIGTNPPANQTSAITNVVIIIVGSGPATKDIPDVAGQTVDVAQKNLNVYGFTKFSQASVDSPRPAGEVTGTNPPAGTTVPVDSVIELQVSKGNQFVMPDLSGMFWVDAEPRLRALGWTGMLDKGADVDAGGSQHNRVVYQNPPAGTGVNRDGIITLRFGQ

[36] = target: Myotonin-protein kinase (Homo sapiens) (UniProt Q09013); details: Compound concentration 1000.0 nM
Sequence of Myotonin-protein kinase (Homo sapiens) (Q09013 whole entry): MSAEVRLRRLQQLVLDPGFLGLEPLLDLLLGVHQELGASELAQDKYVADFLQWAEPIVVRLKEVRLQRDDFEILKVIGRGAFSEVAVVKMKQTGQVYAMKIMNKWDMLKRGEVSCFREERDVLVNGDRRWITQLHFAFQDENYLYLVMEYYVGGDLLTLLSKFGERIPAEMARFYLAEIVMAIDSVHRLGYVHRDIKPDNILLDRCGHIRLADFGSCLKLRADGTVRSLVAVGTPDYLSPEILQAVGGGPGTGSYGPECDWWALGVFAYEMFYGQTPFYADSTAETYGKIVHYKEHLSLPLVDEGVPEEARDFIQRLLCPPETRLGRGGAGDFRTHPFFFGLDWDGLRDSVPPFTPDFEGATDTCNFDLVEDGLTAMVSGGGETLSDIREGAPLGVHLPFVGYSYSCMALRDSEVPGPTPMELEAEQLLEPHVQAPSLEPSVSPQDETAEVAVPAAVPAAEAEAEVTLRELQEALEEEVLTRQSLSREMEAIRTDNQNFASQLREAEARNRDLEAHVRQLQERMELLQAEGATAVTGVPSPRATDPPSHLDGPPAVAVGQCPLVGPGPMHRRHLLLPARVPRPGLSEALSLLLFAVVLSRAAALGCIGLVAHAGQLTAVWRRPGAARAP

[37] = target: T1, D(4) dopamine receptor (Homo sapiens) (UniProt P21917); details: Compound concentration 10.0 uM
T1 sequence (whole entry): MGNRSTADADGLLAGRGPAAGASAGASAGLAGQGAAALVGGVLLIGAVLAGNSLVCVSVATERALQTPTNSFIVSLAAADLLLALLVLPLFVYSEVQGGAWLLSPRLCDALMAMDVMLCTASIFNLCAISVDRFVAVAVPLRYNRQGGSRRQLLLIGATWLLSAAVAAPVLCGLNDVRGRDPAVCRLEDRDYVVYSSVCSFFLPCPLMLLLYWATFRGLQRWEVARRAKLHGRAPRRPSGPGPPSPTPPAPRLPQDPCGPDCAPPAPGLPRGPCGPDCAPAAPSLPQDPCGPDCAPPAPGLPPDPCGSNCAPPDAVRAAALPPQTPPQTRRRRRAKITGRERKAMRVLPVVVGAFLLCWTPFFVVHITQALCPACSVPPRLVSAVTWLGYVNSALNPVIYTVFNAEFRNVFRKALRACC

[38] = target: Serine/threonine-protein kinase TAO3 (Homo sapiens) (UniProt Q9H2K8); details: Compound concentration 1000.0 nM
Sequence of Serine/threonine-protein kinase TAO3 (Homo sapiens) (Q9H2K8 whole entry, canonical isoform): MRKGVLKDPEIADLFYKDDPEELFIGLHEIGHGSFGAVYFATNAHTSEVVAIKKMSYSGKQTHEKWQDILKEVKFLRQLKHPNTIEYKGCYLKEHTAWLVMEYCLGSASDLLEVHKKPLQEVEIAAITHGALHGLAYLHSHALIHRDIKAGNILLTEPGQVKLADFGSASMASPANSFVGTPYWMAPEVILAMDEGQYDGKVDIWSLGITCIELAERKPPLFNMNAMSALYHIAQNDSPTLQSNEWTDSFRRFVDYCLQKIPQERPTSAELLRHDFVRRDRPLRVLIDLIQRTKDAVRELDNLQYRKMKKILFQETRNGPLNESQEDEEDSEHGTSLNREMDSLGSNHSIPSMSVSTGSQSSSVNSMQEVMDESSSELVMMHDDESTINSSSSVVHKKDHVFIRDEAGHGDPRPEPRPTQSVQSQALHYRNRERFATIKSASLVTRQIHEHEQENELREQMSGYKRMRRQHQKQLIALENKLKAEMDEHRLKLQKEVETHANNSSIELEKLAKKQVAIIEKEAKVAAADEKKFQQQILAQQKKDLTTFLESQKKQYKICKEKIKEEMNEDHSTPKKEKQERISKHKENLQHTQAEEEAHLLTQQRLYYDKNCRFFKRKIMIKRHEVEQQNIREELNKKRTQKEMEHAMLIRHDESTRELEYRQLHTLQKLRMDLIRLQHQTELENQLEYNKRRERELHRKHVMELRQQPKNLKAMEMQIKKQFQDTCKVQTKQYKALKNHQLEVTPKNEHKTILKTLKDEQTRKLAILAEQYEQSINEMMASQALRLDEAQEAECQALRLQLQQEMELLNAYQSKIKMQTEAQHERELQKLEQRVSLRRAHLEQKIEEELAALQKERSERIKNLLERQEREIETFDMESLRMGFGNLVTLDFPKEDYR

[39] = target: Casein kinase I isoform epsilon (Homo sapiens) (UniProt P49674); details: Compound concentration 1000.0 nM
Sequence of Casein kinase I isoform epsilon (Homo sapiens) (P49674 whole entry, looked up, canonical isoform): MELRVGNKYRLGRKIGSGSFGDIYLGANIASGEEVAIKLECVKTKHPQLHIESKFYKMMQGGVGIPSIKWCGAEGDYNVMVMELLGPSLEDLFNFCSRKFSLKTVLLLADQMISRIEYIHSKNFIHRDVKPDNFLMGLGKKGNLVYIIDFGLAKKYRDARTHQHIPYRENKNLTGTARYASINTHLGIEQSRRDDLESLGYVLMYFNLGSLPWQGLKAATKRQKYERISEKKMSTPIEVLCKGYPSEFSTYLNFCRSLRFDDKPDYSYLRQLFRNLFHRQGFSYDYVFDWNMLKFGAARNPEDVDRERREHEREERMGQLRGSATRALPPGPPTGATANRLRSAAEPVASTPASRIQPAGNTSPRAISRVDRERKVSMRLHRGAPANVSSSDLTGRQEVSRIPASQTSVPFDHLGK

[40] = target: Insulin receptor-related protein (Homo sapiens) (UniProt P14616); details: Compound concentration 1000.0 nM

Compound | residual activity [1] | residual activity [2] | residual activity [3] | residual activity [4] | residual activity [5] | residual activity [6] | residual activity [7] | residual activity [8] | residual activity [9] | residual activity [10] | residual activity [11] | residual activity [12] | residual activity [13] | residual activity [14] | residual activity [15] | residual activity [16] | residual activity [17] | residual activity [18] | residual activity [19] | residual activity [20] | further results
CCC(=N\O)/C(C)=C/c1ccc(F)cc1 [A-079] | 63% | 100% | 83% | 100% | 97% | 79% | 76% | 80% | 100% | 100% | 93% | 94% | 100% | 94% | 90% | 82% | 78% | 65% | 100% | 85% | residual activity [21]: 100%; residual activity [22]: 100%; residual activity [23]: 70%; residual activity [24]: 78%; residual activity [25]: 83%; residual activity [26]: 97%; residual activity [27]: 90%; residual activity [28]: 68%; residual activity [29]: 95%; residual activity [30]: 73%; residual activity [31]: 65%; inhibition [32]: 11.9%; residual activity [33]: 99%; residual activity [34]: 100%; residual activity [35]: 100%; residual activity [36]: 88%; inhibition [37]: 19.5%; residual activity [38]: 86%; residual activity [39]: 99%; residual activity [40]: 83%
CCC(=N\O)/C(C)=C/c1ccc(F)c(C)c1 [A-226] | 100% | 100% | 91% | 99% | 100% | 88% | 73% | 100% | 61% | 98% | 100% | 87% | 100% | 100% | 91% | 100% | 91% | 100% | 86% | 100% | residual activity [21]: 80%; residual activity [22]: 86%; residual activity [23]: 100%; residual activity [24]: 100%; residual activity [25]: 99%; residual activity [26]: 94%; residual activity [27]: 100%; residual activity [28]: 100%; residual activity [29]: 100%; residual activity [30]: 100%; residual activity [31]: 100%; inhibition [32]: 50.6%; residual activity [33]: 98%; residual activity [34]: 88%; residual activity [35]: 92%; residual activity [36]: 72%; inhibition [37]: 18.6%; residual activity [38]: 46%; residual activity [39]: 92%; residual activity [40]: 100%

Reference: ChEMBL document CHEMBL4507256 (2021)
